Structures can show the parent of a compound that is named as a salt.
Assay: SKIN-CAD simulation of ketotifen fumarate concentration profile in conjunctiva
Design: species or system rabbit
Details: simulation parameter
Source text: The above data were fed into SKIN-CAD (Biocom Systems, Inc., Fukuoka, Japan), a software for analysis of skin permeation of drugs, together with the parameters for hairless mouse skin permeation and parameters for rabbit tear fluid kinetics, to simulate a ketotifen fumarate concentration profile in rabbit's conjunctiva.
According to references, the rate of uptake of absorbed drugs by the subvascular tissues in normal capillary vessels is around 3-5% (K. Tojo, Mathematical models of transdermal and topical drug delivery, 2nd edition, Biocom Systems, Fkuoka, Japan, 2005), and the above transfer rate of 3% (i.e., the rate of uptake into the tear fluid) almost agrees with this. Based on this rate of uptake (3%), the profile of drug concentration in the conjunctiva was simulated again, this time on the assumption that the solid pharmaceutical preparation was rubbed on the skin only once, not ten times, by replacing the parameter for drug thickness in SKIN-CAD with 1/10 of the value in the above test, i.e., with 0.005 cm.
As to the concentration of the drug in the conjunctiva, the results of the above test where the solid pharmaceutical preparation was applied (Table 10, 10 times application) and a graph produced by SKIN-CAD in agreement with the results, the data after the above topical instillation (Table 13), and the result of the simulation by SKIN-CAD where the solid pharmaceutical preparation was rubbed only once (1 time application) are shown together in FIG. 9.

[1] = rabbit tear fluid pharmacokinetics

## CN1CCC(=C2c3ccccc3CC(=O)c3sccc32)CC1 [ketotifen fumarate]
  Absorption Rate Constant into Blood: 0.04 s⁻¹
Device design
  Device/Skin Partition Coefficient: 5.80 × 10^−2
  Diffusion Coefficient in Device: 1.97 × 10^−9 cm^2/sec
Hairless mouse skin permeation
  Diffusion Coefficient in Stratum Corneum: 1.12 × 10^−11 cm^2/sec
  Diffusion Coefficient in Viable Skin: 3.75 × 10^−7 cm^2/sec
  Stratum Corneum/Viable Skin Partition Coefficient: 2.47 × 10^2
[1]
  Elimination Rate Constant, K10: 0.00385 s⁻¹
  Volume of Distribution, V1: 0.008 mL
